Source: patent publication US20200062696A1, “COMPOSITIONS AND METHODS FOR INHIBITING RETICULON 4” (THE REGENTS OF THE UNIVERSITY OF CALIFORNIA, priority 2017, published 2020)
“Also recorded” adds a separate entry of the source.

Experiments:
[1] = target: T1, pure human RTN4 protein (Homo sapiens, UniProt Q9NQC3); assay: Gel-based ABPP competition against IAyne labeling of pure human RTN4 protein; type: binding
T1 construct: purchased Fisher Scientific
T1 sequence (Q9NQC3 1-1192): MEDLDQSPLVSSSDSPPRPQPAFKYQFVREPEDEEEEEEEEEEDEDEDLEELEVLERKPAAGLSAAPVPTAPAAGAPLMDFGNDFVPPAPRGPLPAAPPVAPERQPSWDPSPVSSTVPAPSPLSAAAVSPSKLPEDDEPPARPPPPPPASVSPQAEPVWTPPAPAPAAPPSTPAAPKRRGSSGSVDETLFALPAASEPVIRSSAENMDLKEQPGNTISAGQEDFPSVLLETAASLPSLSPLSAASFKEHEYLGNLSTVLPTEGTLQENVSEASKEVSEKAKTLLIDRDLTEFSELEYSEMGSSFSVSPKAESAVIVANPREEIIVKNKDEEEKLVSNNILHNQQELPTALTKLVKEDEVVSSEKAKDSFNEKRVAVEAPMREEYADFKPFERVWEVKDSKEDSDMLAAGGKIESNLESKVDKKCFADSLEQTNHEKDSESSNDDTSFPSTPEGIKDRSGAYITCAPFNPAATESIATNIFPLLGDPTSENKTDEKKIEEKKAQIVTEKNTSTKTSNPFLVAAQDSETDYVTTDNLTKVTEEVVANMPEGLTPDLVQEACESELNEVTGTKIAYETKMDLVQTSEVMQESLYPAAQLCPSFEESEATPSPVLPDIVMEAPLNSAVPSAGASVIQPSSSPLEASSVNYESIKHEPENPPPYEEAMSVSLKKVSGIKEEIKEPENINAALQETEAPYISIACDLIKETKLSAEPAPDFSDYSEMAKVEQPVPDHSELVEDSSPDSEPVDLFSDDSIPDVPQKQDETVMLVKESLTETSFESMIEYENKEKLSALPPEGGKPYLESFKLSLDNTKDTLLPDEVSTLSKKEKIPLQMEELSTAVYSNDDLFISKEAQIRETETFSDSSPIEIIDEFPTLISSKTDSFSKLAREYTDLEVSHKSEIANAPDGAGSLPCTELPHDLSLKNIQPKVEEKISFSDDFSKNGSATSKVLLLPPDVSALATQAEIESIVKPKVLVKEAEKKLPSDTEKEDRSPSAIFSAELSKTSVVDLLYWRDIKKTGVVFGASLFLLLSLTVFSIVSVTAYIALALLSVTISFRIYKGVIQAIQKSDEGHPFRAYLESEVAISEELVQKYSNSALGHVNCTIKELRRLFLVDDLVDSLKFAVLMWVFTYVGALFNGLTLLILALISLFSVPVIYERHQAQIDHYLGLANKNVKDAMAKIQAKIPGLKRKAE
Method: (§1) FIGS. 11A-11C. DKM 3-30 and analogs. (FIG. 11A) Structures of DKM 3-30 and analogs. (FIG. 11B) Gel-based ABPP analysis showing competition side-by-side competition studies of DKM 3-30, YP 1-46, and AMR 1-125 against IA-rhodamine labelling of pure human RTN4. Shown are the 50% inhibitory concentration (IC50) values for each compound. (FIG. 11C) Serum-free cell survival of U2OS (48 h) or SW620 (24 h) cells treated with DMSO vehicle or each compound (50 μM). Data in (C) are presented as mean±sem. Significance is expressed as *p<0.001 compared to vehicle-treated controls.
Gel-Based ABPP. Gel-based ABPP methods were performed as previously described^24. Recombinant RTN4 (0.06 μg) protein (RTN4-Fisher Scientific) were pre-treated with DMSO or DKM 3-30, respectively, for 1 h at 37° C. in an incubation volume of 50 μL PBS, and were subsequently treated with IAyne (10 μM final concentration) for 30 min at 37° C. CuAAC was performed to append rhodamine-azide onto IAyne probe-labeled proteins. The samples were separated by SDS/PAGE and scanned using a ChemiDoc MP (Bio-Rad Laboratories, Inc). Inhibition of target labeling was assessed by densitometry using ImageStudio Light software.

[2] = system: SW620 colorectal cancer cells; assay: Serum-free cell survival of SW620 cells (Hoescht staining); type: cell-based; details: 50 μM, 24 h
[3] = system: U2OS cells expressing GFP-tagged Sec61β; assay: ER morphology by fluorescence microscopy in U2OS cells expressing GFP-Sec61β; type: cell-based; details: DKM 3-30 50 μM (8 hr, 16 hr, time-lapse); AMR 1-125 1 μM; YP 1-46 50 μM
Method: Fluorescence microscopy. SW620 and U2OS cells were transiently transfected with a plasmid encoding GFP-tagged Sec61β using fuGENE6 (Roche) according to the manufacturer's instructions. Transfected cells plated on poly-L-lysine treated coverslips were treated, washed in PBS, and fixed by incubation in 4% paraformaldehyde in PBS for 10 min. Fixed cells were washed extensively in PBS and nuclei stained by addition of 4′,6-diamidino-2-phenylindole (DAPI) (Thermo Fisher Scientific) for 10 min. Coverslips were mounted using Fluoromount-G (SouthernBiotech) and visualized using a DeltaVision Elite microscope outfitted with a 60× oil immersion objective. Acquired stacks of images of fixed cells were deconvolved and analyzed using SoftWoRx and ImageJ. For time-lapse imaging of live cells, transfected cells were plated on poly-L-lysine treated glass-bottom 4-well imaging chambers (Lab-Tek II; Thermo Fisher Scientific). Imaging was performed using a DeltaVision Elite microscope encased in a chamber that was maintained at 37° C. and was continuously perfused with humidified 5% CO2. Acquired images were analyzed using SoftWoRx and ImageJ.

[4] = system: U2OS osteosarcoma cells; assay: Serum-free cell survival of U2OS cells; type: cell-based; details: 50 μM, 48 h
Method: as §1
(§2) Cell Culture. SW620 cells were purchased from ATCC. SW620 cells were grown in L-15 media with 10% fetal bovine serum (FBS) in ambient CO2. U2OS cells were grown in DMEM media supplemented with 10% FBS at 37° C. with 5% CO2.
(§3) Survival and Proliferation Assays. Cells were plated the evening before the experiment, and allowed to adhere overnight. For serum-free cell survival assays, cells were plated in media not containing FBS. For cell proliferation assays, cells were plated in regular media. For the chemical genetics screen, cells were treated with either DMSO or the cysteine-reactive fragment for 48 h and cell viability was assessed by Hoescht stain using our previously described methods

[5] = system: SW620 colorectal cancer cells; assay: Cell proliferation of SW620 cells (Hoescht staining); type: cell-based; details: Homo sapiens, SW-620, cysteine-reactive fragment 50 μM, 48 h, vs DMSO, average of n = 3/group, read-out: SW620 proliferation Ave
Method: as §2, §3

[6] = system: SW620 colorectal cancer cells; assay: Serum-free cell survival of SW620 cells (Hoescht staining); type: cell-based; details: Homo sapiens, SW-620, cysteine-reactive fragment 50 μM, 48 h, vs DMSO, average of n = 3/group, read-out: SW620 survival Ave
Method: as §2, §3

SMILES	improved potency compared to DKM 3-30 ([1]; competition against probe labelling of pure human RTN4, from IC50 values of FIG. 11B)	cell survival in SW620 cells [2]	ER morphology in U2OS cells [3]	cell survival in U2OS cells [4]	activity at 50 µM [5]	viability at 50 µM [6]	displacement of IAyne labelling of RTN4 ([1]; pure human RTN4 protein, gel-based ABPP)
C=CC(=O)Nc1ccc(Oc2ccc(C(C)(C)C)cc2)cc1 [AMR 1-125, N-(4-(4-(tert-butyl)phenoxy)phenyl)acrylamide]	~7 fold	impaired	impaired; also recorded: alters ER morphology	impaired			
CCCN(C)C(=O)CCl [TRH 1-53, 2-Chloro-N-methyl-N-propylacetamide]					72%	69%	
C=CC(=O)NCc1ccccc1C [TRH 1-54, N-(2-methylbenzyl)acrylamide]					139%	175%	
Cc1ccccc1CNC(=O)CCl [TRH 1-55, 2-Chloro-N-(2-methylbenzyl)acetamide]					53%	47%	
C=CC(=O)Nc1ccc(Oc2ccc(OC)cc2)cc1 [YP 1-46, N-(4-(4-methoxyphenoxy)phenyl)acrylamide]			not	not			less displacement
